Experimental data from ChEMBL document CHEMBL3588800, “Novel Bioactive Hybrid Compound Dual Targeting Estrogen Receptor and Histone Deacetylase for the Treatment of Breast Cancer” (J Med Chem, 2015).
pEC50, pIC50, pKi: −log10 of the molar value.

How the values were obtained:
[1] = molecular target: T1, Estrogen receptor (Homo sapiens, UniProt P03372); test: Binding affinity to human ER-alpha ligand binding domain after 2 hrs by competitive fluorometric binding assay
T1 sequence (P03372 whole entry): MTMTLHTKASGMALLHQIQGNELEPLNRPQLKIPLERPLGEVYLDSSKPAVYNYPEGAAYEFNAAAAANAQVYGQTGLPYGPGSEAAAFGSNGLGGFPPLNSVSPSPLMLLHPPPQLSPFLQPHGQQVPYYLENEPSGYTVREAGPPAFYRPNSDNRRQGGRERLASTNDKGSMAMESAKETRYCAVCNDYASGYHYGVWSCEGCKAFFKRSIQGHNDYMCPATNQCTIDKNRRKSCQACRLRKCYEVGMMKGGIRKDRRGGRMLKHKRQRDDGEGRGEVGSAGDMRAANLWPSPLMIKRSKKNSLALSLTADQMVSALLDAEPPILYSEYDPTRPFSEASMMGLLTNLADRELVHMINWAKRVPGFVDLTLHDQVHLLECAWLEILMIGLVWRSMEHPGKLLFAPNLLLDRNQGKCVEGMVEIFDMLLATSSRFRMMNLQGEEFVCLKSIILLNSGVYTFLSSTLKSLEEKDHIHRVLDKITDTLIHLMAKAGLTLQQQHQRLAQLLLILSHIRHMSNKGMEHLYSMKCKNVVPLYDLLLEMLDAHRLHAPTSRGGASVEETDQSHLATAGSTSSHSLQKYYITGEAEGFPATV

[2] = Therapeutic index, ratio of IC50 for african green monkey Vero cells to IC50 for human MCF7 cells
[3] = molecular target: T1, Estrogen receptor; test: Antagonist activity at ER-alpha (unknown origin) transfected in HEK293T cells assessed as inhibition of transcriptional activity after 24 hrs by luciferase reporter gene assay; type: cell-based, HEK-293T
[4] = molecular target: T2, Protein deacetylase HDAC6 (Homo sapiens, UniProt Q9UBN7); test: Inhibition of human recombinant HDAC6 after 15 mins by fluorogenic assay; conditions: read-out: IC50
T2 sequence (Q9UBN7 whole entry): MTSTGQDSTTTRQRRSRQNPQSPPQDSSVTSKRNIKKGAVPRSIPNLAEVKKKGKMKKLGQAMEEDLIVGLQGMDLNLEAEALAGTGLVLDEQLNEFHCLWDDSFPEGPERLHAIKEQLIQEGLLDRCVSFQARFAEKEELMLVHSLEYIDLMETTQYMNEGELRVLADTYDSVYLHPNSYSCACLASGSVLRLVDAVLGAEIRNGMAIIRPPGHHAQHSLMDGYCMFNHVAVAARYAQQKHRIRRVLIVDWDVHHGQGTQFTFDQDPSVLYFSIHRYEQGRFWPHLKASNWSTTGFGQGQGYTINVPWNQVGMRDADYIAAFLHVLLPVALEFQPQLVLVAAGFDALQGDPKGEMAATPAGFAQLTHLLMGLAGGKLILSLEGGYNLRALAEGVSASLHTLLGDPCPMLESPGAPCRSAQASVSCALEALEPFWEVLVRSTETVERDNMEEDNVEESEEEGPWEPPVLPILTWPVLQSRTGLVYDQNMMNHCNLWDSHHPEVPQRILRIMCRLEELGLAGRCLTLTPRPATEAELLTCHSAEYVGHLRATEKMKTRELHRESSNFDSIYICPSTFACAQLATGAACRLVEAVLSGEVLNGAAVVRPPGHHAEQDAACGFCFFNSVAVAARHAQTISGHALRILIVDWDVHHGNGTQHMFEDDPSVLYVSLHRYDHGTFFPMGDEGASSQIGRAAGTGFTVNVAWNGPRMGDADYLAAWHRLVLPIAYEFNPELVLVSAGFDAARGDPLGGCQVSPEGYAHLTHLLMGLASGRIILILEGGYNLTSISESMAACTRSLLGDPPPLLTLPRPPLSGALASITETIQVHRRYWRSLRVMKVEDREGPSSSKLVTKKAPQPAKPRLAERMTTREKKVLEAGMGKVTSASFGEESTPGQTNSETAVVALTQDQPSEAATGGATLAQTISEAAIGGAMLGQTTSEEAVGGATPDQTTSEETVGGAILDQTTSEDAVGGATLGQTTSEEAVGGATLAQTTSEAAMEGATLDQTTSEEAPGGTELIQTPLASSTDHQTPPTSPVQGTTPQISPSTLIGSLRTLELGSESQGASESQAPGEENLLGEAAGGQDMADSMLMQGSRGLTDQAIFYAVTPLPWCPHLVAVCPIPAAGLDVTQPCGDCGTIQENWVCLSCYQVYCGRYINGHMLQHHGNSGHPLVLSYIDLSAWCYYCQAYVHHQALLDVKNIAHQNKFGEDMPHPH

[5] = molecular target: T3, Estrogen receptor beta (Homo sapiens, UniProt Q92731); test: Antagonist activity at ER-beta (unknown origin) transfected in HEK293T cells assessed as inhibition of transcriptional activity after 24 hrs by luciferase reporter gene assay; type: cell-based, HEK-293T
[6] = molecular target: T4, Estrogen receptor (Homo sapiens) (UniProt P03372); test: Antagonist activity at ER-alpha (unknown origin) transfected in HEK293T cells assessed as inhibition of transcriptional activity after 24 hrs by luciferase reporter gene assay relative to 17-beta estradiol; type: cell-based; conditions: HEK-293T
T4 sequence (whole entry): T1 sequence (P03372 whole entry)

[7] = molecular target: T3, Estrogen receptor beta; test: Binding affinity to human ER-beta ligand binding domain after 2 hrs by competitive fluorometric binding assay
[8] = system: MCF7; test: cells; type: functional, cell-based; conditions: Homo sapiens, MCF7, 72 h
[9] = system: Vero; test: cells; type: ADME, cell-based; conditions: Chlorocebus sabaeus, 72 h
[10] = molecular target: T4, Estrogen receptor (Homo sapiens); test: Agonist activity at ER-alpha (unknown origin) transfected in HEK293T cells assessed as stimulation of transcriptional activity after 24 hrs by luciferase reporter gene assay relative to 17-beta estradiol; type: cell-based; conditions: HEK-293T
[11] = molecular target: Histone deacetylase 1 (Homo sapiens, UniProt Q13547); test: Inhibition of human recombinant HDAC1 after 15 mins by fluorogenic assay; conditions: read-out: IC50
[12] = system: DU-145; test: cells; type: functional, cell-based; conditions: Homo sapiens, DU-145, 72 h
[13] = molecular target: T3, Estrogen receptor beta; test: Antagonist activity at ER-beta (unknown origin) transfected in HEK293T cells assessed as inhibition of transcriptional activity after 24 hrs by luciferase reporter gene assay relative to 17-beta estradiol; type: cell-based; conditions: HEK-293T
[14] = molecular target: T3, Estrogen receptor beta; test: Agonist activity at ER-beta (unknown origin) transfected in HEK293T cells assessed as stimulation of transcriptional activity after 24 hrs by luciferase reporter gene assay relative to 17-beta estradiol; type: cell-based; conditions: HEK-293T
[15] = molecular target: T3, Estrogen receptor beta; test: Agonist activity at ER-beta (unknown origin) transfected in HEK293T cells assessed as stimulation of transcriptional activity after 24 hrs by luciferase reporter gene assay; type: cell-based, HEK-293T
[16] = molecular target: T1, Estrogen receptor; test: Agonist activity at ER-alpha (unknown origin) transfected in HEK293T cells assessed as stimulation of transcriptional activity after 24 hrs by luciferase reporter gene assay; type: cell-based, HEK-293T

Histone deacetylase 1, sequence (Q13547 whole entry): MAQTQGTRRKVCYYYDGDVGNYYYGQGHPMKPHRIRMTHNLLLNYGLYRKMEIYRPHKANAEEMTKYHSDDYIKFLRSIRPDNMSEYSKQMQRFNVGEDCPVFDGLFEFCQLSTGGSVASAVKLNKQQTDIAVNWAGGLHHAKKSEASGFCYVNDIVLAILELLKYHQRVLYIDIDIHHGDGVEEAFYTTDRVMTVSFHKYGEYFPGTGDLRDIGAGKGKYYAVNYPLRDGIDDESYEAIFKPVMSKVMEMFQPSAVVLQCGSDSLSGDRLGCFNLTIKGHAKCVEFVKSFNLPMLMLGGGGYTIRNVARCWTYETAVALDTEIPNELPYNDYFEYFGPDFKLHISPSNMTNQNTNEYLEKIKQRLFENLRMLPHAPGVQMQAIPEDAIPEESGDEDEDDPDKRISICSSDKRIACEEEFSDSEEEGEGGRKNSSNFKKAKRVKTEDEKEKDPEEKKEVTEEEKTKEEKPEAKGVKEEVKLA
T3 sequence (Q92731 whole entry): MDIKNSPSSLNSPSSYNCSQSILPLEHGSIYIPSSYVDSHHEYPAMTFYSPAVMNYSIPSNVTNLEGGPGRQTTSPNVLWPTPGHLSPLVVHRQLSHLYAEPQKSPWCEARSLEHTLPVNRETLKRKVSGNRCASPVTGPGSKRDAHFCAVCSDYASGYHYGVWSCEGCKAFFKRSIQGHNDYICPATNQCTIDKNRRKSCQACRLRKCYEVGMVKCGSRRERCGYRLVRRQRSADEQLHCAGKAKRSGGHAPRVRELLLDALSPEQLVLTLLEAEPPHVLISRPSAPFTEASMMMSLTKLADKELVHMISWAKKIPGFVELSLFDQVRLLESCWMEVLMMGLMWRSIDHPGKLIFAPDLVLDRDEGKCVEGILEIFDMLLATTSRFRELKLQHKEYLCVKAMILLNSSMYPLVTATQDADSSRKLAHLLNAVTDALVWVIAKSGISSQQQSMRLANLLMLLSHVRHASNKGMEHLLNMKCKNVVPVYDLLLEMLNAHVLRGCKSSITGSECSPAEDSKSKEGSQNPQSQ

Row | Structure (SMILES) | pKi [1] | pIC50 [3] | pIC50 [4] | pIC50 [5] | Efficacy [6] [%] | pKi [7] | pIC50 [8] | Efficacy [10] [%] | pIC50 [11] | pIC50 [12] | Efficacy [13] [%] | Efficacy [14] [%] | pEC50 [15] | pEC50 [16] | selectivity ratio [2] | pIC50 [9]
1 | O=C(CCCCCCC(=O)Nc1ccc(OS(=O)(=O)C2CC3OC2C(c2ccc(O)cc2)=C3c2ccc(O)cc2)cc1)NO (stereo unspecified) | 6.83 |  | 6.72 | 5.94 | 104 | 6.90 | 4.26 | -15 | 6.23 | 4.37 | -27 | 3 |  |  |  | < 4.00
2 | O=C(CCCCCCC(=O)Nc1ccc(C2=C(c3ccc(O)cc3)C3CC(S(=O)(=O)Oc4ccc5ccccc5c4)C2O3)cc1)NO (stereo unspecified) | 6.51 | 6.80 | 6.49 | 5.11 | -26 | 6.99 | 4.49 | 13 | 6.46 | 4.91 | 19 | -17 |  |  |  | < 4.00
3 | O=C(O)CCCCCCC(=O)Nc1ccc(C2=C(c3ccc(O)cc3)C3CC(S(=O)(=O)Oc4ccc(O)cc4)C2O3)cc1 (racemic) | 6.88 |  |  | 4.93 | 99 | 7.41 | < 4.00 | 79 |  | < 4.00 | 23 | 69 | 4.87 | 5.62 |  | < 4.00
4 | COc1ccccc1OS(=O)(=O)C1CC2OC1C(c1ccc(NC(=O)CCCCCCC(=O)O)cc1)=C2c1ccc(O)cc1 (racemic) | 6.80 |  |  | 6.54 | 104 | 7.02 | < 4.00 | 84 |  | < 4.00 | 78 | 65 | 5.74 | 7.80 |  | < 4.00
5 | O=C(O)CCCCCCC(=O)Nc1ccc(C2=C(c3ccc(O)cc3)C3CC(S(=O)(=O)Oc4ccc(Br)cc4)C2O3)cc1 (racemic) | 6.90 | 5.77 |  | 6.60 | 75 | 7.22 | < 4.00 | -36 |  | < 4.00 | 77 | -3 |  |  |  | < 4.00

Compounds with a higher pIC50 [8], results first:

Row | pKi [1] | pIC50 [3] | pIC50 [4] | pIC50 [5] | Efficacy [6] [%] | pKi [7] | pIC50 [8] | Efficacy [10] [%] | pIC50 [11] | pIC50 [12] | Efficacy [13] [%] | Efficacy [14] [%] | pEC50 [15] | pEC50 [16] | Structure (SMILES) | selectivity ratio [2] | pIC50 [9]
6 | 7.22 | 4.97 | 5.80 | 6.48 | 10 | 6.12 | 5.09 | -35 | 6.27 | 4.69 | 76 | 4 |  |  | COC(=O)CCCCCCC(=O)Nc1ccc(OS(=O)(=O)C2CC3OC2C(c2ccc(O)cc2)=C3c2ccc(O)cc2)cc1 (stereo unspecified) | > 12.3 | < 4.00
7 |  | 7.30 | 5.08 | 6.80 | 25 |  | 4.72 | -10 | 6.97 | 4.46 | 89 | -5 |  |  | O=C(O)CCCCCCC(=O)Nc1ccc(OS(=O)(=O)C2CC3OC2C(c2ccc(O)cc2)=C3c2ccc(O)cc2)cc1 (stereo unspecified) |  | < 4.00
8 | 5.35 |  |  |  | 87 | 7.09 | 4.75 | 67 |  | 4.27 | 100 | 100 | 5.96 | 5.94 | COc1cccc(OS(=O)(=O)C2CC3OC2C(c2ccc(NC(=O)CCCCCCC(=O)O)cc2)=C3c2ccc(O)cc2)c1 (racemic) | > 5.59 | < 4.00
9 |  |  |  | 6.55 | 99 |  | 4.61 | 38 |  | < 4.00 | 85 | -13 |  | 4.74 | O=C(O)CCCCCCC(=O)Nc1ccc(C2=C(c3ccc(O)cc3)C3CC(S(=O)(=O)Oc4ccc(F)cc4)C2O3)cc1 (racemic) |  | < 4.00
10 | 6.90 |  | 5.84 |  | 93 | 6.70 | 5.48 | 149 | 6.62 | < 4.00 | 188 | 44 | 6.24 | 6.10 | O=C(O)CCCCCCC(=O)Nc1ccc(C2=C(c3ccc(O)cc3)C3CC(S(=O)(=O)Oc4ccc(Cl)cc4)C2O3)cc1 (racemic) | > 30.3 | < 4.00
11 | 5.35 |  |  | 6.21 | 115 | < 5.30 | 4.64 | 38 |  | 4.49 | 48 | 29 | 7.27 |  | Cc1cccc(OS(=O)(=O)C2CC3OC2C(c2ccc(NC(=O)CCCCCCC(=O)NO)cc2)=C3c2ccc(O)cc2)c1 (racemic) |  | < 4.00
